Settings: lower pH values (pH = 7 or 8); conclusion from Tabelle 1
Procedure: Zum Vergleich der Wellwirksamkeit wurden an blondierten Haarsträhnen aus mitteleuropäischem Haar Wellstabilitäten ermittelt. Hierzu wurden 16,5 Zentimeter lange, aus etwa 100 Haaren bestehende Haarsträhnen auf Wickler mit einem Innendurchmesser von 3 Millimetern gewickelt und mit einer 87 mmol Reduktionsmittel pro 100 g Lösung enthaltenden, auf den jeweiligen pH-Wert eingestellten, Reduktionsmittellösung bei 50 Grad Celsius 20 Minuten lang behandelt, wobei eine Menge von 1,2 ml Reduktionsmittellösung pro Gramm Haarsträhne verwendet wurde.
Anschließend wurde das Haar mit einer 3-prozentigen wäßrigen Wasserstoffperoxidlösung oxidativ nachbehandelt, getrocknet und sodann 4 Stunden lang in Wasser ausgehängt. Im Anschluß hieran wurde die Wellstabilität bestimmt.
Die Wellstabilitäten wurden hierbei nach der folgenden Formel ermittelt: [formula] I0 = Gesamtlänge der nicht umgeformten, gestreckten Strähne (16,5 Zentimeter) It = Länge der abgewickelten, ausgehängten Strähne nach 240 Minuten I1 = Länge der umgeformten, aufgewickelten Strähne bei einem Wickelinnendurchmesser von 3 mm (I1 = 35 Millimeter)
Als Reduktionsmittel wurden Cysteamin (Formel (I) mit R = H) und N-Mesylcysteamin (Formel (I) mit R = SO2CH3) sowie als Vergleichsstandard eine auf pH = 9 eingestellte Glycerinmonothioglycolat-Lösung (Wellstabilität = 100 %) verwendet. […]

CS(=O)(=O)NCCS [R = -SO2-CH3, N-2-Mercaptoethylmethansulfonsäureamid]
Wellwirksamkeit gegenüber Cysteamin: signifikant höhere Wellwirksamkeit

— patent EP0723771A2, “Agent and process for permanent hair waving” (Wella Aktiengesellschaft, priority 1995, dated 1996)
